Data reported in US20240059700A1, “NOVEL DIACYLGLYCERIDE O-ACYLTRANSFERASE 2 INHIBITORS” (Merck Sharp & Dohme LLC, priority 2020, published 2024).

Target: human DGAT2 (hDGAT2) (Homo sapiens (Human), UniProt Q96PD7)
Assay: DGAT2 Enzymatic Activity Assay
Format: biochemical
Details: membrane prep of Sf-9 insect cells expressing hDGAT2; 13C18-triolein product by LC/MS/MS
Procedure, shortened: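 Membranes from Sf-9 cells infected with untagged hDGAT2 baculovirus (8 ng/μL) incubated at rt in 100 mM Tris pH 7.0, 20 mM MgCl2, 5% ethanol with 25 μM diolein and 5 μM 13C oleoyl-CoA. 13C18-triolein product quantified by LC/MS/MS against 13C21-triolein internal standard; IC50 by 4-parameter fit.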

Chain of human DGAT2 (hDGAT2) (Q96PD7 whole entry): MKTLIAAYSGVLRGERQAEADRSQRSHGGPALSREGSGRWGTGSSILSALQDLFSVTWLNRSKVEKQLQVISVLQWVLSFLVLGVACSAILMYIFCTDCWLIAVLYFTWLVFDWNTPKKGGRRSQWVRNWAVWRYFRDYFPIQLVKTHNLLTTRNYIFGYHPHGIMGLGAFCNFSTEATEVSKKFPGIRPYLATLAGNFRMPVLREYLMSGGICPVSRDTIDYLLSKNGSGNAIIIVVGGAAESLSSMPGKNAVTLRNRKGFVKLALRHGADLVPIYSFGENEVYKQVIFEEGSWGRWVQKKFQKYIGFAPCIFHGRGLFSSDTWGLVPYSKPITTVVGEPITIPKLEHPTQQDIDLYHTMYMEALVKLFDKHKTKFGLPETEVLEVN

Row | SMILES | IC50
1 | CC(C)n1nc(-c2cncc(OC(F)F)c2)c2ncc(C(=O)NC3(C)CS(=O)(=O)C3)cc21 [Example 95, 3-[5-(difluoromethoxy)-3-pyridyl]-1-isopropyl-N-(3-methyl-1,1-dioxo-thietan-3-yl)pyrazolo[4,3-b]pyridine-6-carboxamide] | 26 nM
2 | CC(C)n1nc(-c2cccc(OC(F)F)n2)c2ncc(C(=O)NC3(C)CS(=O)(=O)C3)cc21 [Example 96, 3-[6-(difluoromethoxy)-2-pyridyl]-1-isopropyl-N-(3-methyl-1,1-dioxo-thietan-3-yl)pyrazolo[4,3-b]pyridine-6-carboxamide] | 5540 nM
3 | CC(C)n1nc(-c2cc(OC(F)F)ccn2)c2ncc(C(=O)NC3(C)CS(=O)(=O)C3)cc21 [Example 98, 3-[4-(difluoromethoxy)-2-pyridyl]-1-isopropyl-N-(3-methyl-1,1-dioxo-thietan-3-yl)pyrazolo[4,3-b]pyridine-6-carboxamide] | 690 nM
4 | CC(C)n1nc(-c2cncc(OC(F)F)c2)c2ncc(C(=O)N[C@H]3CCCC[C@@H]3O)cc21 [Example 99, 3-[5-(difluoromethoxy)-3-pyridyl]-N-[(1S,2S)-2-hydroxycyclohexyl]-1-isopropyl-pyrazolo[4,3-b]pyridine-6-carboxamide] | 52 nM
5 | CC(C)n1nc(-c2cncc(OC(F)F)c2)c2ncc(C(=O)N[C@H]3CCC[C@H]3O)cc21 [Example 105, 3-(5-(difluoromethoxy)pyridin-3-yl)-N-((1S,2R)-2-hydroxycyclopentyl)-1-isopropyl-1H-pyrazolo[4,3-b]pyridine-6-carboxamide] | 78 nM
6 | CC(C)n1nc(-c2cncc(OC3CC3)c2)c2ncc(C(=O)NC3(C)CS(=O)(=O)C3)cc21 [Example 106, 3-(5-cyclopropoxypyridin-3-yl)-1-isopropyl-N-(3-methyl-1,1-dioxidothietan-3-yl)-1H-pyrazolo[4,3-b]pyridine-6-carboxamide] | 46 nM
7 | CC(C)n1nc(-c2cc(OC3CCC3)ccc2F)c2ncc(C(=O)NC3(C)CS(=O)(=O)C3)cc21 [Example 109, 3-(5-cyclobutoxy-2-fluorophenyl)-1-isopropyl-N-(3-methyl-1,1-dioxidothietan-3-yl)-1H-pyrazolo[4,3-b]pyridine-6-carboxamide] | 11 nM
8 | CC(C)(O)Cn1nc(-c2cccc(OC(F)F)c2)c2ncc(C(=O)NC3(C)CS(=O)(=O)C3)cc21 [Example 111, 3-(3-(difluoromethoxy)phenyl)-1-(2-hydroxy-2-methylpropyl)-N-(3-methyl-1,1-dioxidothietan-3-yl)-1H-pyrazolo[4,3-b]pyridine-6-carboxamide] | 22 nM
9 | CC(C)(O)Cn1nc(-c2cccc(C3CC3)c2)c2ncc(C(=O)NC3(C)CS(=O)(=O)C3)cc21 [Example 112, 3-(3-cyclopropylphenyl)-1-(2-hydroxy-2-methylpropyl)-N-(3-methyl-1,1-dioxidothietan-3-yl)-1H-pyrazolo[4,3-b]pyridine-6-carboxamide] | 6 nM
10 | CC(C)n1nc(-c2cncc(OC(F)(F)F)c2)c2ncc(C(=O)NC3(C)CS(=O)(=O)C3)cc21 [Example 114, 1-isopropyl-N-(3-methyl-1,1-dioxidothietan-3-yl)-3-(5-(trifluoromethoxy)pyridin-3-yl)-1H-pyrazolo[4,3-b]pyridine-6-carboxamide] | 20 nM
11 | CC[C@H](C)n1nc(-c2cc(OC(F)F)ncc2F)c2ncc(C(=O)NC3(C)CCS(=O)(=O)CC3)cc21 [Example 116, (S)-1-(sec-butyl)-3-(2-(difluoromethoxy)-5-fluoropyridin-4-yl)-N-(4-methyl-1,1-dioxidotetrahydro-2H-thiopyran-4-yl)-1H-pyrazolo[4,3-b]pyridine-6-carboxamide] | 11.5 nM
12 | CC(C)n1nc(-c2cc(OC(F)(F)F)ccc2F)c2ncc(C(=O)NC3(C)CCS(=O)(=O)CC3)cc21 [Example 118, 3-(2-fluoro-5-(trifluoromethoxy)phenyl)-1-isopropyl-N-(4-methyl-1,1-dioxidotetrahydro-2H-thiopyran-4-yl)-1H-pyrazolo[4,3-b]pyridine-6-carboxamide] | 20 nM
13 | CC(C)n1nc(-c2cc(OCC(F)F)ncc2F)c2ncc(C(=O)NC3(C)CS(=O)(=O)C3)cc21 [Example 121, 3-(2-(2,2-difluoroethoxy)-5-fluoropyridin-4-yl)-1-isopropyl-N-(3-methyl-1,1-dioxidothietan-3-yl)-1H-pyrazolo[4,3-b]pyridine-6-carboxamide] | 8.3 nM
14 | CC(C)n1nc(-c2cc(OCC(F)(F)F)ncc2F)c2ncc(C(=O)NC3(C)CS(=O)(=O)C3)cc21 [Example 122, 3-(5-fluoro-2-(2,2,2-trifluoroethoxy)pyridin-4-yl)-1-isopropyl-N-(3-methyl-1,1-dioxidothietan-3-yl)-1H-pyrazolo[4,3-b]pyridine-6-carboxamide] | 7.7 nM
15 | Cc1nc2c(-c3nn(C(C)C)c4cc(C(=O)NC5(C)CS(=O)(=O)C5)cnc34)cccc2o1 [Example 123, 1-isopropyl-N-(3-methyl-1,1-dioxidothietan-3-yl)-3-(2-methylbenzo[d]oxazol-4-yl)-1H-pyrazolo[4,3-b]pyridine-6-carboxamide] | 487 nM

Next, values leading:

Row | IC50 | SMILES
16 | 7 nM | CC(C)n1nc(-c2cccc(OCC(F)F)c2)c2ncc(C(=O)NC3(C)CS(=O)(=O)C3)cc21 [Example 94, 3-[3-(2,2-difluoroethoxy)phenyl]-1-isopropyl-N-(3-methyl-1,1-dioxo-thietan-3-yl)pyrazolo[4,3-b]pyridine-6-carboxamide]
17 | 0.9 nM | CC(C)n1nc(-c2cccc(OC3CC3)c2)c2ncc(C(=O)NC3(C)CS(=O)(=O)C3)cc21 [Example 97, 3-[3-(cyclopropoxy)phenyl]-1-isopropyl-N-(3-methyl-1,1-dioxo-thietan-3-yl)pyrazolo[4,3-b]pyridine-6-carboxamide]
18 | 139 nM | CC(C)n1nc(-c2ccnc(OC(F)F)c2)c2ncc(C(=O)NC3(C)CS(=O)(=O)C3)cc21 [Example 100, 3-[2-(difluoromethoxy)-4-pyridyl]-1-isopropyl-N-(3-methyl-1,1-dioxo-thietan-3-yl)pyrazolo[4,3-b]pyridine-6-carboxamide]
19 | 85 nM | CC(C)n1nc(-c2cncc(C3CC3)c2)c2ncc(C(=O)NC3(C)CS(=O)(=O)C3)cc21 [Example 101, 3-(5-cyclopropyl-3-pyridyl)-1-isopropyl-N-(3-methyl-1,1-dioxo-thietan-3-yl)pyrazolo[4,3-b]pyridine-6-carboxamide]
20 | 7100 nM | CC(C)n1nc(-c2cccc(S(C)(=O)=O)c2)c2ncc(C(=O)NC3(C)CS(=O)(=O)C3)cc21 [Example 102, 1-isopropyl-N-(3-methyl-1,1-dioxo-thietan-3-yl)-3-(3-methylsulfonylphenyl)pyrazolo[4,3-b]pyridine-6-carboxamide]
21 | 119 nM | CC(C)n1nc(-c2cccc(F)c2)c2ncc(C(=O)NC3(C)CS(=O)(=O)C3)cc21 [Example 104, 3-(3-fluorophenyl)-1-isopropyl-N-(3-methyl-1,1-dioxo-thietan-3-yl)pyrazolo[4,3-b]pyridine-6-carboxamide]
22 | 2280 nM | CC(C)n1nc(-c2cccc(C3(C(F)(F)F)CC3)c2)c2ncc(C(=O)NC3(C)CS(=O)(=O)C3)cc21 [Example 107, 1-isopropyl-N-(3-methyl-1,1-dioxidothietan-3-yl)-3-(3-(1-(trifluoromethyl)cyclopropyl)phenyl)-1H-pyrazolo[4,3-b]pyridine-6-carboxamide]
23 | 109 nM | CC(C)n1nc(-c2cccc(C#N)c2)c2ncc(C(=O)NC3(C)CS(=O)(=O)C3)cc21 [Example 108, 3-(3-cyanophenyl)-1-isopropyl-N-(3-methyl-1,1-dioxidothietan-3-yl)-1H-pyrazolo[4,3-b]pyridine-6-carboxamide]
24 | 1930 nM | CC(C)n1nc(-c2cccc(C3(C#N)CC3)c2)c2ncc(C(=O)NC3(C)CS(=O)(=O)C3)cc21 [Example 110, 3-(3-(1-cyanocyclopropyl)phenyl)-1-isopropyl-N-(3-methyl-1,1-dioxidothietan-3-yl)-1H-pyrazolo[4,3-b]pyridine-6-carboxamide]
25 | 1 nM | CC(C)n1nc(-c2cc(OC(F)F)ccc2F)c2ncc(C(=O)NC3(C)CS(=O)(=O)C3)cc21 [Example 113, 3-(5-(difluoromethoxy)-2-fluorophenyl)-1-isopropyl-N-(3-methyl-1,1-dioxidothietan-3-yl)-1H-pyrazolo[4,3-b]pyridine-6-carboxamide]
26 | 3.3 nM | CCOc1ccc(F)c(-c2nn(C(C)C)c3cc(C(=O)NC4(C)CS(=O)(=O)C4)cnc23)c1 [Example 115, 3-(5-ethoxy-2-fluorophenyl)-1-isopropyl-N-(3-methyl-1,1-dioxidothietan-3-yl)-1H-pyrazolo[4,3-b]pyridine-6-carboxamide]
27 | 9.6 nM | CC(C)n1nc(-c2cc(C3CC3)ccc2F)c2ncc(C(=O)NC3(C)CS(=O)(=O)C3)cc21 [Example 117, 3-(5-cyclopropyl-2-fluorophenyl)-1-isopropyl-N-(3-methyl-1,1-dioxidothietan-3-yl)-1H-pyrazolo[4,3-b]pyridine-6-carboxamide]
28 | 97 nM | CC(C)n1nc(-c2cccc(OC(F)(F)F)c2)c2ncc(C(=O)NC3(C)CS(=O)(=O)C3)cc21 [Example 119, 1-isopropyl-N-(3-methyl-1,1-dioxidothietan-3-yl)-3-(3-(trifluoromethoxy)phenyl)-1H-pyrazolo[4,3-b]pyridine-6-carboxamide]
29 | 7.2 nM | CC(C)n1nc(-c2cc(OC(F)F)ccc2Cl)c2ncc(C(=O)NC3(C)CS(=O)(=O)C3)cc21 [Example 120, 3-(2-chloro-5-(difluoromethoxy)phenyl)-1-isopropyl-N-(3-methyl-1,1-dioxidothietan-3-yl)-1H-pyrazolo[4,3-b]pyridine-6-carboxamide]
30 | 620 nM | CC(=O)Nc1ccc(-c2nn(C(C)C)c3cc(C(=O)NC4(C)CS(=O)(=O)C4)cnc23)cc1O [Example 124, 3-(4-acetamido-3-hydroxyphenyl)-1-isopropyl-N-(3-methyl-1,1-dioxidothietan-3-yl)-1H-pyrazolo[4,3-b]pyridine-6-carboxamide]
